This is an account of results in patent US20130131321A1, “LIGANDS FOR ANTIBODY AND Fc-FUSION PROTEIN PURIFICATION BY AFFINITY CHROMATOGRAPHY” (GRAFFINITY PHARMACEUTICALS GMBH, priority 2010, published 2013).

The target in experiment [1] is T1, Bevacizumab (Homo sapiens, UniProt P01857).
T1 construct: fused on or other part: humanised anti-VEGF-A VH domain N-terminal of the gamma-1 constant region (engineered, no UniProt entry)
Description: Microtiter plate chromatography of resins, Bevacizumab whole IgG (bound, yield, selectivity). The experiment is classed as binding, humanized.

Experiment [2] deals with T1, Bevacizumab. Briefly: Uptake kinetics by batch adsorption (time-scale of binding). The following applies: 0.75 mg ml^−1 Bevacizumab in PBS, 25° C. More on the design: species or system humanized. The procedure: Uptake kinetics were investigated similarly by batch adsorption in 96-well filter plates. Again, 10 μl of sorbent slurry (50% v/v) were mixed with 100 μl of protein solution. However, a fixed initial concentration of 0.75 mg ml^−1 Bevacizumab in PBS was used. Reactions were agitated vigorously at 25° C. for up to 80 min. Supernatants were separated rapidly by spinning through filters after 2.5, 5, 10, 20, 40 and 80 minutes and sampled for analysis. Concentrations of the antibody were analyzed by Bradford assay.
Uptake kinetics were characterized by a time-scale of binding t0.8, which was defined as the time after which 80% of the equilibrium saturation of resin with antibody had occurred. For determination of t0.8, measured concentrations in the supernatant were interpolated by fitting of double-exponentials (5) and values of t0.8 were read out from graphs. Parameters of Langmuir isotherms and time-scales of binding for in-house resins as well as for reference resins are reported in the table below.

Experiment [3] has as its target T1, Bevacizumab. Description: Dynamic and equilibrium binding capacity by column chromatography. Also noted: species or system humanized. Conditions: 1 mg ml^−1 Bevacizumab. The procedure:
Dynamic binding capacities were determined by column chromatography with purified Bevacizumab. Resins were packed into analytical columns of 25 mm length and 3 mm inner diameter. Columns were fed with 1 mg ml^−1 antibody in phosphate-buffered saline (150 mM NaCl, 20 mM phosphate buffer, pH 7.3) at constant flow rate, while the concentration of antibody in effluents was monitored online via absorbance at 280 nm. Antibody was loaded until effluent concentration reached at least 10% of the feed concentration. Dynamic binding capacities were determined at a flow rate of 50 cm h^−1, corresponding to 3 min empty column residence time. Equilibrium capacities were also determined at a flow rate of 50 cm h^−1 by loading until complete breakthrough of antibody. […]
‘Dynamic capacity’ was defined as the amount of antibody that can be injected onto a column at constant flow rate until the effluent concentration reaches 10% of the feed concentration. It was calculated as the time t0.1 after which 10% breakthrough occurred, multiplied by the flow rate F and feed concentration cf.
Equilibrium capacity is defined as the maximum amount of antibody that binds to a column for a given feed stream concentration. It was calculated by evaluation of the following integral
The integral was evaluated numerically. […]

Molecules are shown by their SMILES.

As for `COc1ccc(NC(=O)c2cc(-c3ccco3)n(C)n2)cc1C(=O)NCCCN` [Ligand L1, 5-[5-(2-Furyl)-1-methylpyrazol-3-yl]carboxamido-2-methoxybenzoic acid N-(3-aminopropyl)amide], in experiment [1] (fraction of whole IgG Bevacizumab bound to resin), the “Bevacizumab IgG Bound (%)” value was determined as 100%. Further, the “Bevacizumab IgG Yield (%)” value in experiment [1] (mass of whole IgG Bevacizumab eluted / mass injected) was 91%. Besides, the “t0.8 (time-scale of binding, 80% of equilibrium saturation)” value in experiment [2] is recorded as 9.9 min. The “Dynamic Capacity” value in experiment [3] (50 cm h^−1, 10% breakthrough) is given as 20.2 mg per ml of resin. Also, the “Equilibrium Capacity” value in experiment [3] (50 cm h^−1, complete breakthrough) is given as 25.7 mg per ml of resin.
